Measured values taken from ChEMBL document CHEMBL1143622 (J Med Chem, 2005).

What was measured:
[1] = Inhibitory activity against trypsin
[2] = Inhibitory activity against Coagulation factor X
[3] = target: Thrombin & trypsin (Homo sapiens) (UniProt P00734+P07477+P07478+P35030); assay: Selectivity against Thrombin to that of trypsin; assay type: protein assay
[4] = target: Integrin alpha-IIb/beta-3 (Homo sapiens, UniProt P05106+P08514); assay: Inhibitory activity against binding of Fibrinogen to thrombocyte alpha IIb beta-3 integrin; assay type: protein-complex assay
[5] = Inhibitory activity against thrombin
[6] = Inhibitory activity against thrombocyte aggregation induced by collagen; assay type: functional
[7] = Inhibitory activity against thrombocyte aggregation induced by ADP; assay type: functional

Integrin alpha-IIb/beta-3, sequence (P05106 27-788 limits assumed): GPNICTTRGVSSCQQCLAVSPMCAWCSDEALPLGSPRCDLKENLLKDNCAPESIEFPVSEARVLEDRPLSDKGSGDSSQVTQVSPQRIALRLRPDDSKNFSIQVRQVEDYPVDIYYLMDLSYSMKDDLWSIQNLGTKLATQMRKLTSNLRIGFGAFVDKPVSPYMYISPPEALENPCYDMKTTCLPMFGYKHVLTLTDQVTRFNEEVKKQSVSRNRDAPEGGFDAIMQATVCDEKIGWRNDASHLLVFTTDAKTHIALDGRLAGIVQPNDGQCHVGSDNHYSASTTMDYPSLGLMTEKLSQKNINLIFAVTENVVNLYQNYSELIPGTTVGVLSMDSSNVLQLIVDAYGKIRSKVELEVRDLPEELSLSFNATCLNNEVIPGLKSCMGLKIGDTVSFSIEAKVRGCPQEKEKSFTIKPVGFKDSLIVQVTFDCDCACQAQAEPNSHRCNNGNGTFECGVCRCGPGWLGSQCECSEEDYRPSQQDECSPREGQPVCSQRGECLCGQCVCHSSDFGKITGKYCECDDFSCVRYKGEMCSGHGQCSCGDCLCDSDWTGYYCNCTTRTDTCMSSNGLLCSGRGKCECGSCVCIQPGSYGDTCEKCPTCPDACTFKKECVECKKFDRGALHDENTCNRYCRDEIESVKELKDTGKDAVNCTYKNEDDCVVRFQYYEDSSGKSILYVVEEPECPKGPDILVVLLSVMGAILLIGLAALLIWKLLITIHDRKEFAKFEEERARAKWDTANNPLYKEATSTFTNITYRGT
Integrin alpha-IIb/beta-3, sequence (P08514 32-887 limits assumed): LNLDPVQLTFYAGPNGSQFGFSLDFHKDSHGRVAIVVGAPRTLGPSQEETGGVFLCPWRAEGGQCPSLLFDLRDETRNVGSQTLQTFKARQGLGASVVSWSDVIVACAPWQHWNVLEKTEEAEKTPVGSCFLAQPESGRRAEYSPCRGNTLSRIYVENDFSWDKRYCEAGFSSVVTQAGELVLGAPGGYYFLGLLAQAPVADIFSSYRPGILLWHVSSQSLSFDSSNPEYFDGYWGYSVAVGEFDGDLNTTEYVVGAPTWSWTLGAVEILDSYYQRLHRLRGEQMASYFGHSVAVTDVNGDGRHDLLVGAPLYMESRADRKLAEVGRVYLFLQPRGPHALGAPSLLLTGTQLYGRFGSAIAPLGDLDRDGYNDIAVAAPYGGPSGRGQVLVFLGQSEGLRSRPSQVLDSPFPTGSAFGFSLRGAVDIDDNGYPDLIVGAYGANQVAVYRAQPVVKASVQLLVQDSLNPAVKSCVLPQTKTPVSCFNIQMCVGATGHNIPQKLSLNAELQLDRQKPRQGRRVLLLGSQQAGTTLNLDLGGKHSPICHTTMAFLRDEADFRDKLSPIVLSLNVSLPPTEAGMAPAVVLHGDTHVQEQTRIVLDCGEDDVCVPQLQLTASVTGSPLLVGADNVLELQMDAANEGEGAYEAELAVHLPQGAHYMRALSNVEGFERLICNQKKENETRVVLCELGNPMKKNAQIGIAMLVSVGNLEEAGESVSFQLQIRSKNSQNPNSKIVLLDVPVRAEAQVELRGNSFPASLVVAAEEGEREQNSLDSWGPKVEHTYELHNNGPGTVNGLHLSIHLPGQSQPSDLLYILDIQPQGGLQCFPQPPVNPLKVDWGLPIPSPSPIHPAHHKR
Integrin alpha-IIb/beta-3, sequence (P08514 891-1039 limits assumed): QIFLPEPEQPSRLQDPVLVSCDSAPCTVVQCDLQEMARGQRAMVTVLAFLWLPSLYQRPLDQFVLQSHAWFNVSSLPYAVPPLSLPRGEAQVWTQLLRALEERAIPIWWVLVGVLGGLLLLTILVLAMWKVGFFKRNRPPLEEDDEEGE

Row | Compound | Ki [1] [µM] | Ki [2] [µM] | Selectivity [3] | Ki [4] [µM] | Ki [5] [µM] | IC50 [6] [µM] | IC50 [7] [µM]
1 | CCOC(=O)C[C@H](NC(=O)c1ccc2c(c1)OC(OCc1ccc(C(=N)N)cc1)C(=O)N2C)c1ccccc1 (stereo not given in full) | 16 | 54.6 | 4.2 | 24.6 | – | – | –
2 | CCOC(=O)CC[C@H](NC(=O)[C@H](Cc1ccccc1)C(=O)Nc1ccc2c(c1)OCC(=O)N2Cc1ccc(C(=N)N)cc1)C(=O)OCC | 46.2 | 54.1 | 2 | 3.94 | 23.3 | – | –
3 | N=C(N)c1ccc(CN2C(=O)COc3cc(NC(=O)C(Cc4ccccc4)C(=O)N[C@@H](CCC(=O)O)C(=O)O)ccc32)cc1 (stereo not given in full) | 17.7 | 25.7 | 0.4 | 0.206 | 49.4 | – | –
4 | CCOC(=O)[C@H](C)NC(=O)C(Cc1ccccc1)C(=O)Nc1ccc2c(c1)OCC(=O)N2Cc1ccc(C(=N)N)cc1 (stereo not given in full) | 12.1 | 26.8 | 0.57 | 7.3 | 21.3 | – | –
5 | CN1C(=O)C(OCc2ccc(C(=N)N)cc2)Oc2cc(C(=O)N[C@@H](CC(=O)O)c3ccccc3)ccc21 (stereo not given in full) | 26.5 | > 200 | – | 1.64 | 14.9 | – | –
6 | CCOC(=O)CC[C@H](NC(=O)C(Cc1ccccc1)C(=O)Nc1ccc2c(c1)OCC(=O)N2Cc1ccc(C(=N)N)cc1)C(=O)OCC (stereo not given in full) | 10.5 | 19.2 | 0.5 | 3.66 | 21.6 | – | –

The next compounds have a lower Ki [1] than those just listed; values first:

Row | Ki [1] [µM] | Ki [2] [µM] | Selectivity [3] | Ki [4] [µM] | Ki [5] [µM] | IC50 [6] [µM] | IC50 [7] [µM] | Compound
7 | 9.6 | 21.1 | 0.5 | 59.1 | 20.6 | – | – | CCOC(=O)[C@H](C)NC(=O)[C@H](Cc1ccccc1)C(=O)Nc1ccc2c(c1)OCC(=O)N2Cc1ccc(C(=N)N)cc1
8 | 8.4 | 20.6 | 0.69 | 6.84 | 12.1 | – | – | CCOC(=O)CNC(=O)C(Cc1ccccc1)C(=O)Nc1ccc2c(c1)OCC(=O)N2Cc1ccc(C(=N)N)cc1 (stereo not given)
9 | 5.5 | 8.8 | 0.3 | 5.19 | 16.3 | – | – | CCOC(=O)[C@H](Cc1ccccc1)C(=O)Nc1ccc2c(c1)OCC(=O)N2Cc1ccc(C(=N)N)cc1
10 | 5.5 | 31.6 | 0.1 | 3.94 | 53.8 | – | – | N=C(N)c1ccc(CN2C(=O)COc3cc(NC(=O)C(Cc4ccccc4)C(=O)O)ccc32)cc1 (stereo not given)
11 | 5.3 | 22.3 | 0.14 | 0.973 | 38.6 | 85 | 63 | COC(=O)C(Cc1ccccc1)C(=O)Nc1ccc2c(c1)OCC(=O)N2Cc1ccc(C(=N)N)cc1 (stereo not given)
